According to patent US6699662B1, “Inhibitors of staphylococcus SarA protein function involved in the expression of staphylococcal virulence factors and the use thereof in treating staphylococcal infections” (priority 1999, dated 2004):

Key:
[1] = system: SarA-DNA complex (SarA and ds A1/A2 DNA); settings: for effect of PNA added to the complexed SarA and radiolabeled ds A1/A2 DNA: PNA added to a mixture of SarA and ds A1/A2 DNA
Experimental: The first tests of potential inhibitors are made using EMSA. Briefly, ^32P-labeled DNA fragments that correspond to the PNA or HP molecules are used as the targets. […] The concentration of SarA required to bind 50% of the DNA fragment is determined empirically. To determine the degree of inhibition, a mixture of SarA and ^32P-labeled DNA that gives 50% free DNA and 50% bound DNA (called 100% in this assay) is titrated with the PNA molecule. The concentration of PNA that reduces the SarA-DNA complex by 50% is the IC50 value. Using this simple, but effective testing procedure, the PNA or HP design is varied with regard to the sequence targeted and the length of PNA or HP molecules.
The samples were analyzed by standard EMSA and phosphorimaging.

[2] = system: A1/A2 oligonucleotide (SarA binding site of the agr locus); experiment: EMSA of PNA binding to radiolabeled A1/A2 oligonucleotide; design: species or system Staphylococcus aureus
Excerpt: The present invention also is directed to a method of identifying inhibitors of SarA function involved in the expression of staphylococcal virulence genes comprising: a) contacting a candidate inhibitor with at least one SarA binding site of the agr locus in solution to allow the binding reaction to equilibrate for a sufficient period of time; and b) assessing the binding of said candidate inhibitor to said SarA binding site of the agr locus. (See FIG. 15 for an example of the results of this method.) The method further comprises the addition of SarA to the solution of step a) simultaneously with the inhibitor and the SarA binding site, and then an assessment of the binding affinity of the candidate inhibitor relative to the binding affinity of the SarA to the SarA binding site of the agr locus. Alternatively, the addition of SarA to the solution of step a) is sequentially with the inhibitor and the SarA binding site, and then the assessment of the binding affinity of said candidate inhibitor relative to the binding affinity of said SarA to the SarA binding site of the agr locus. (See FIG. 16 for an example of the results of this method showing the results with and without the addition of SarA.)
A prototype PNA inhibitor of SarA-agr binding is constructed and tested. […] The complexes were resolved by native gel electrophoresis and detected by phosphorimaging. […]

| Substance | competition with SarA for binding to A1/A2 DNA ([1]; 10 nM dsDNA incubated with PNA (0.750 pM, 7.5, 75, 750 nM) overnight, then 10 nM SarA added, FIG. 16) | effect of PNA added to the complexed SarA and radiolabeled ds A1/A2 DNA [1] | fraction of PNA active in the binding assay ([2]; 20 nM 32P-labeled A1/A2, FIG. 15) | binding / affinity of PNA for the A1/A2 oligonucleotide ([2]; 20 nM 32P-labeled A1/A2, varying PNA concentrations, FIG. 15) |
| --- | --- | --- | --- | --- |
| gly-TCCAATTTTTCTTAACTA-lys [18-mer] | able to outcompete SarA for binding to the DNA | the complex changed from the SarA-DNA complex to the PNA-DNA complex | – | – |
| gly-TTTCTTAACTA-lys (N-terminal glycine and C-terminal lysine attached, backbone not given here, further chemistry not given here; listed as Staphylococcus aureus) [PNA-1] | – | did not change this complex | nearly all, if not all | very high |
